Laboratory results reported in US20110124877A1, “5-BENZYL-4-AZOLYLMETHYL-4-SPIRO[2.4]HEPTANOL DERIVATIVES, METHODS FOR PRODUCING THE SAME, AND AGRO-HORTICULTURAL AGENTS AND INDUSTRIAL MATERIAL PROTECTING AGENTS THEREOF” (KUREHA CORPORATION, priority 2008, published 2011).

Columns and labels:
[1] = test system: cucumber gray mold microorganism; assay: Cucumber gray mold preventing effect assay; format: in vivo, Botrytis cinerea; conditions: analogous assay at 25 mg/l
Protocol: The sprayed leaves were air-dried, and loaded with a paper disc (8 mm in diameter) soaked with a spore suspension of a cucumber gray mold microorganism, and kept at 20 degrees C. and a high humidity. 4 Days after inoculation, the cucumber gray mold severity was investigated, and the protective value was calculated by the following equation. [table]

[2] = test system: wheat pink snow mold microorganism (Microdochium nivale); assay: Antimicroorganism effect, mycelial extension on PDA plate; format: cell-based; conditions: PDA plate medium, 50 mg/l, 1 to 3 days, read-out: growth inhibition grade
[3] = test system: wheat eye spot microorganism (Pseudocercosporella herpotrichoides); assay: as above; format: cell-based; conditions: Oculimacula yallundae, PDA plate medium, 50 mg/l, 1 to 3 days, read-out: growth inhibition grade
[4] = test system: rice blast microorganism (Pyricularia oryzae); assay: microbe, parasite or virus in culture; format: cell-based; conditions: read-out: growth inhibition grade
[5] = test system: ricesheath blight microorganism (Rhizoctonia solani); assay: Antimicroorganism effect, mycelial extension on PDA plate; format: cell-based; conditions: PDA plate medium, 50 mg/l, 1 to 3 days, read-out: growth inhibition grade
[6] = test system: penicillium microorganism (Penicillium sp.); assay: as above; format: cell-based; conditions: PDA plate medium, 50 mg/l, 1 to 3 days, read-out: growth inhibition grade
[7] = test system: apple alternaria blotch microorganism (Alternaria alternata); assay: as above; format: cell-based; conditions: PDA plate medium, 50 mg/l, 1 to 3 days, read-out: growth inhibition grade
[8] = test system: wheat stagonospora blotch microorganism (Phaeosphaeria nodorum); assay: as above; format: cell-based; conditions: Parastagonospora nodorum, PDA plate medium, 50 mg/l, 1 to 3 days, read-out: growth inhibition grade
[9] = test system: rice bakanae disease microorganism (Giberella fujikuroi); assay: as above; format: cell-based; conditions: PDA plate medium, 50 mg/l, 1 to 3 days, read-out: growth inhibition grade
[10] = test system: barley loose smut microorganism (Ustilago nuda); assay: as above; format: cell-based; conditions: PDA plate medium, 50 mg/l, 1 to 3 days, read-out: growth inhibition grade
[11] = test system: wheat fusarium blight microorganism (Fusarium graminearum); assay: microbe, parasite or virus in culture; format: cell-based; conditions: read-out: growth inhibition grade
[12] = test system: barley scald microorganism (Rhynchosporium secalis); assay: Antimicroorganism effect, mycelial extension on PDA plate; format: cell-based; conditions: PDA plate medium, 50 mg/l, 1 to 3 days, read-out: growth inhibition grade
[13] = test system: Curvularia microorganism (Curvularia sp.); assay: as above; format: cell-based; conditions: PDA plate medium, 50 mg/l, 1 to 3 days, read-out: growth inhibition grade
[14] = test system: gray mold microorganism (Botritis cinerea); assay: as above; format: cell-based; conditions: PDA plate medium, 50 mg/l, 1 to 3 days, read-out: growth inhibition grade
[15] = test system: Aureobasidium microorganism (Aureobasidium sp.); assay: as above; format: cell-based; conditions: PDA plate medium, 50 mg/l, 1 to 3 days, read-out: growth inhibition grade
[16] = test system: wood denaturing microorganism (Coriolus versicolor); assay: as above; format: cell-based; conditions: Trametes versicolor, PDA plate medium, 50 mg/l, 1 to 3 days, read-out: growth inhibition grade
[17] = test system: Aspergillus microorganism (Aspergillus sp.); assay: as above; format: cell-based; conditions: PDA plate medium, 50 mg/l, 1 to 3 days, read-out: growth inhibition grade
[18] = test system: rice seedling blight microorganism (Rhizopus) (Rhizopus oryzae); assay: as above; format: cell-based; conditions: Rhizopus arrhizus, PDA plate medium, 50 mg/l, 1 to 3 days, read-out: growth inhibition grade
[19] = test system: sclerotinia rot microorganism (Sclerotinia sclerotiorum); assay: as above; format: cell-based; conditions: PDA plate medium, 50 mg/l, 1 to 3 days, read-out: growth inhibition grade
[20] = test system: sugar beet cercospora leaf spot microorganism (Cercospora beticola); assay: as above; format: cell-based; conditions: PDA plate medium, 50 mg/l, 1 to 3 days, read-out: growth inhibition grade
[21] = test system: wood denaturing microorganism (Tyromyces palustris); assay: as above; format: cell-based; conditions: PDA plate medium, 50 mg/l, 1 to 3 days, read-out: growth inhibition grade
[22] = test system: citrous blue mold microorganism (Penicillium italicum); assay: as above; format: cell-based; conditions: PDA plate medium, 50 mg/l, 1 to 3 days, read-out: growth inhibition grade
[23] = test system: Tricoderma microorganism (Trichoderma sp.); assay: as above; format: cell-based; conditions: PDA plate medium, 50 mg/l, 1 to 3 days, read-out: growth inhibition grade
[24] = test system: cucumber fusarium wilt microorganism (Fusarium oxysporum); assay: as above; format: cell-based; conditions: PDA plate medium, 50 mg/l, 1 to 3 days, read-out: growth inhibition grade
[25] = test system: Mucor microorganism (Mucor sp.); assay: as above; format: cell-based; conditions: PDA plate medium, 50 mg/l, 1 to 3 days, read-out: growth inhibition grade
[26] = test system: wheat take-all microorganism (Gaeumannomyces graminis); assay: as above; format: cell-based; conditions: PDA plate medium, 50 mg/l, 1 to 3 days, read-out: growth inhibition grade
[27] = test system: wheat septoria bloth microorganism (Septoria tritici); assay: as above; format: cell-based; conditions: Zymoseptoria tritici, PDA plate medium, 50 mg/l, 1 to 3 days, read-out: growth inhibition grade
[28] = test system: anthracnose microorganism (Glomerella cingulata); assay: as above; format: cell-based; conditions: Colletotrichum gloeosporioides, PDA plate medium, 50 mg/l, 1 to 3 days, read-out: growth inhibition grade
[29] = test system: Cladosporium microorganism (Cladosporium sp.); assay: as above; format: cell-based; conditions: PDA plate medium, 50 mg/l, 1 to 3 days, read-out: growth inhibition grade
[30] = test system: barley stripe microorganism (Pyrenophora graminea); assay: as above; format: cell-based; conditions: PDA plate medium, 50 mg/l, 1 to 3 days, read-out: growth inhibition grade

OC1(Cn2cncn2)C(Cc2ccc(Cl)cc2)CCC12CC2 (single isomer, unassigned) [Compound I-2, 5-(4-chlorobenzyl)-4-(1H-1,2,4-triazol-1-ylmethyl)-4-spiro[2.4]heptanol]
melting point: 166 to 167 °C

C[C@]12C[C@H]1C[C@H](Cc1ccc(Cl)cc1)[C@@]2(O)Cn1cncn1 (stereo in doubt) [Comparative Compound (A), 3-(4-chlorobenzyl)-1-methyl-2-(1H-1,2,4-triazol-1-ylmethyl)bicyclo[3.1.0]hexan-2-ol, reference compound]
Controlling value [1]: 54%

OC1(Cn2cncn2)C(Cc2cccc(Cl)c2)CCC12CC2 (single isomer, unassigned) [Compound I-3, 5-(3-chlorobenzyl)-4-(1H-1,2,4-triazol-1-ylmethyl)-4-spiro[2.4]heptanol]
inhibition at 50 µg/mL [2]: 70 to 90% | inhibition at 50 µg/mL [3]: > 90% | inhibition at 50 µg/mL [4]: > 90% | inhibition at 50 µg/mL [5]: 70 to 90% | melting point: 84.5 to 85.5 °C | inhibition at 50 µg/mL [6]: > 90% | inhibition at 50 µg/mL [7]: 70 to 90% | inhibition at 50 µg/mL [8]: > 90% | inhibition at 50 µg/mL [9]: > 90% | inhibition at 50 µg/mL [10]: 70 to 90% | inhibition at 50 µg/mL [11]: > 90% | inhibition at 50 µg/mL [12]: > 90% | inhibition at 50 µg/mL [13]: 70 to 90% | inhibition at 50 µg/mL [14]: > 90% | inhibition at 50 µg/mL [15]: 70 to 90% | inhibition at 50 µg/mL [16]: > 90% | inhibition at 50 µg/mL [17]: > 90% | inhibition at 50 µg/mL [18]: 70 to 90% | inhibition at 50 µg/mL [19]: > 90% | inhibition at 50 µg/mL [20]: > 90% | inhibition at 50 µg/mL [21]: > 90% | inhibition at 50 µg/mL [22]: > 90% | inhibition at 50 µg/mL [23]: > 90% | inhibition at 50 µg/mL [24]: > 90% | inhibition at 50 µg/mL [25]: 70 to 90% | inhibition at 50 µg/mL [26]: > 90% | inhibition at 50 µg/mL [27]: > 90% | inhibition at 50 µg/mL [28]: > 90% | inhibition at 50 µg/mL [29]: > 90% | inhibition at 50 µg/mL [30]: > 90%

OC1(Cn2cncn2)C(Cc2ccc(F)cc2)CCC12CC2 (single isomer, unassigned) [Compound I-8, 5-(4-fluorobenzyl)-4-(1H-1,2,4-triazol-1-ylmethyl)-4-spiro[2.4]heptanol]
melting point: 139 to 140 °C
